The text below walks through data of publication PMC8623395, “Virtual Screening and Molecular Dynamics Simulation Study of Influenza Polymerase PB2 Inhibitors” (Molecules, 2021).

By EC50 is commonly meant the concentration that produces a half-maximal response. What is called IC50 is the concentration that gives 50% inhibition.

One data set relates to A/WSN/33. More on the design: method as in PMID 20178582. The conditions noted are these: cited from earlier work.
Data set [1] relates to influenza virus polymerase PB2 subunit. Details: method as in PMID 30102858. The conditions noted are these: cited from earlier work.
The next data set concerns HK/68 (H3N2). Briefly: CPE inhibition assay in MDCK cells, H3N2. In kind it is cell-based. The settings on record: Influenza A virus, 72 h.
The test system of data set [2] is influenza A/Puerto Rico/8/1934 (H1N1). Briefly: CPE inhibition assay in MDCK cells, H1N1. In kind it is cell-based. The settings on record: Influenza A virus, 72 h.
A further data set can be described thus: in vitro. The settings on record: dog.
In data set [3] the test system is influenza virus ribonucleoprotein (RNP). Details: method as in PMID 12755627. The settings on record: cited from earlier work.
In a further data set the test system is H3N2 influenza virus. Details: method as in PMID 24134208. The conditions noted are these: read-out: IC50 for the cytopathic effect (CPE) of H3N2 influenza virus; cited from earlier work. On the technique in general: Cytopathic effects are the visible damage that an infection or toxin causes in cultured cells.

As to `O=C(O)c1cc(-c2ccc(Br)cc2)nc2ccc(Cl)cc12` [CSV0C019002], the EC50 in the data set with A/WSN/33 is 4.27 µM.
With `O=c1oc2cc(O)cc(O)c2c2ccccc12` [Compound D715-2441, 1,3-Dihydroxy-6H-benzo[c]chromen-6-one], the “PB2 cap and m7 GTP binding” value in data set [1] is “prevent PB2 cap and m7 GTP binding in a dose-dependent manner”.
Take `CCC(CC)O[C@@H]1C=C(C(=O)O)C[C@H](N)[C@H]1NC(C)=O` [OC, Oseltamivir carboxylate, reference compound]: the concentration for half-maximal inhibition (IC50) with HK/68 (H3N2) was found to be 0.01 µM; in data set [2] it was 0.95 µM. The CC50 at 72 h in the data set “in vitro” is above 100 µM.
In the case of `Nc1nc2c(c(=O)[nH]1)[n+](Cc1ccccc1)cn2CCCCO` [RO0794238], in data set [3], the IC50 is 45 µM.
As for `O=C(Nc1nc(-c2ccc(O)cc2)c(CCc2ccccc2)s1)c1cc(O)c(O)c(O)c1` [Str1614], the IC50 was 19.6 ± 0.93 µM in the data set on HK/68 (H3N2) and 26.3 ± 8.69 µM in data set [2]. The same molecule returned a CC50 at 72 h in “in vitro” above 100 µM.
On the same counts, the results for `CCCCOc1ccc(-c2csc(Nc3ccc(CCC(=O)O)cc3)n2)cc1Cl` [Str1916] are 17 ± 7.94 µM, 4.82 ± 3.03 µM and above 100 µM.
`O=C(O)c1cc2ccccc2c(Cc2c(O)c(C(=O)O)cc3ccccc23)c1O` [Str3107]: the figures for the IC50 (with HK/68 (H3N2); in data set [2]) were 45.7 ± 3.01 µM and 18.2 ± 4.96 µM, respectively. This molecule yielded a CC50 in “in vitro” above 100 µM.
`O=C(O)c1cccc([C@@H](c2ccc(O)c(C(=O)O)c2)C(Cl)(Cl)Cl)c1` [Str5776]: the results for the 50% inhibitory concentration (IC50) (in the data set on HK/68 (H3N2); in data set [2]) were 2.51 ± 0.12 µM and 3.55 ± 1.23 µM, respectively. In the data set “in vitro”, this molecule showed a CC50 at 72 h above 100 µM.
For `O=C(CCCCC(=O)c1ccccc1C(=O)O)c1ccccc1` [Str6318] the same measures were 11.2 ± 3.39 µM, 28.6 ± 9.46 µM and above 100 µM.
For `COc1c2oc3c(OC)ccc(C(=O)N[C@@H](Cc4ccccc4)C(=O)O)c3nc-2cc(N)c1=O` [Str7374] the same measures were 55.4 ± 27 µM, 31.9 ± 8.15 µM and above 100 µM.
As to `O=C(O)[C@H]1C2CCC(CC2)[C@@H]1Nc1nc(-c2c[nH]c3ncc(F)cc23)ncc1F` [VX-787, reference compound], the half-maximal inhibitory concentration (IC50) in the data set on HK/68 (H3N2) is 0.09 ± 0.02 µM; in data set [2], 0.004 ± 0.001 µM. In the data set “in vitro”, this molecule had a CC50 above 100 µM.
Turning to `C[n+]1cn(CCCCC(=O)O)c2nc(CCCCCC(=O)O)nc([O-])c21` [g], the IC50 in the data set on H3N2 influenza virus is 5.3 µM.
`Cc1nc([O-])c2c(n1)n(CC(=O)c1ccc(O)c(C(=O)O)c1)c[n+]2C` [h]: the IC50 in the data set with H3N2 influenza virus is 0.6 µM.
`Cc1nc([O-])c2c(n1)n(CC(=O)c1ccc(O)c(C(N)=O)c1)c[n+]2C` [i]: the IC50 with H3N2 influenza virus was 7.5 µM.
